Values of other authors, collected in US20110008428A1, “SOLID PHARMACEUTICAL COMPOSITION COMPRISING A NON-PEPTIDE ANGIOTENSIN II RECEPTOR ANTAGONIST AND A DIURETIC” (ratiopharm GmbH, priority 2008, published 2011).

Details: free acid form; physiological pH range of the gastro-intestinal tract, between pH 1-7

Compound: CCCc1nc2c(C)cc(-c3nc4ccccc4n3C)cc2n1Cc1ccc(-c2ccccc2C(=O)O)cc1 [Telmisartan, 4′-[(1,4′-dimethyl-2′-n-propyl-[2,6′-bi-1H-benzimidazol]-1′-yl)methyl]-[1,1′-biphenyl]-2-carboxylic acid]
- solubility in aqueous systems: very poor
